In patent US20100029755A1, “P-Glycoprotein inhibitor comprising octilonium bromide as an effective ingredient” (priority 2002, published 2010):
Where two headings read alike, the source gives them in different places.

Experiments:
[1] = tested on: p-glycoprotein; settings: SD, rat, 1 h, pH 6.4
[2] = tested on: p-glycoprotein; settings: SD, rat, 1 h, 10 μg/ml, pH 6.4
[3] = administered orally; cited from earlier work

| SMILES | absorbed amount of the doxorubicin ([1]; 50 μg/ml) | absorbed doxorubicin as % of the total applied amount ([1]; 50 μg/ml) | absorbed rhodamine 123 as % of the total applied amount [2] | amount of the absorbed rhodamine 123 [2] | increase of the amount of absorbed rhodamine by octylonium bromide [2] | absorbed amount of the doxorubicin ([1]; 200 μg/ml) | absorbed doxorubicin as % of the total applied amount ([1]; 200 μg/ml) | increase of the amount of absorbed doxorubicin by octylonium bromide ([1]; 200 μg/ml) | fraction of octylonium bromide absorbed systemically [3] | fraction of octylonium bromide remaining in the gastrointestinal tract [3] |
| --- | --- | --- | --- | --- | --- | --- | --- | --- | --- | --- |
| COc1cccc2c1C(=O)c1c(O)c3c(c(O)c1C2=O)C[C@@](O)(C(=O)CO)C[C@@H]3O[C@H]1C[C@H](N)[C@H](O)[C@H](C)O1 [doxorubicin] | 0.4 μg/g tissue | 0.12% | – | – | – | – | – | – | – | – |
| CCCCCCCCOc1ccccc1C(=O)Nc1ccc(C(=O)OCC[N+](C)(CC)CC)cc1 [octylonium bromide] | – | – | 14.5% | 4.3 μg/g tissue | 4.5 folds | 11 μg/g tissue | 3.3% | 28 folds | 5% | 95% |
